Test results as given in patent publication EP4818163A1, “POLYCYCLIC COMPOUND AND USE THEREOF” (Zhejiang Jingke Pharmaceuticals Co., Ltd., priority 2023, dated 2025).

Key:
[1] = Preclinical pharmacokinetic test in rats; format: in vivo; conditions: rat, po; male SD rats, intragastric administration (p.o.), 10 mg/kg, plasma
Description: Healthy adult SD rats, male, aged 6-8 weeks, with a body weight of 200-300 g, purchased from Vital River Company; EDTA-Na2 anticoagulant; and analytical balance, animal weighing scale, magnetic stirrer, refrigerated centrifuge, single-channel manual pipette, and the like.
• 1. Drug preparation: approximately 10 mg of the test sample was accurately weighed and dissolved in 5% DMSO (after conversion), and then 10% solutol HS-15 and 85% normal saline were added. The mixture was subjected to ultrasonic processing and mixed by vortexing to obtain a solution at a concentration of 1 mg/mL, which was freshly prepared before use. 0.2 mL of the sample was transferred into a 1.5 mL centrifuge tube and stored at -80°C for administration solution concentration analysis. • 2. Animal preparation: the rats were fed in rat cages, and fasted (for at least 10 hours) with free access to water one day before the experiment. On the day of experiment, the rats were weighed and marked at the tail respectively. Blank blood samples were collected respectively before drug administration. The blood samples were collected via the tail vein. • 3. Drug administration: • administration route: intragastric administration (p.o.); • administration dose: 10 mg/kg; • administration volume: 10 mL/kg; and • operation procedure: the rat was restrained in an upright position with a left hand wearing bite-resistant gloves, a 16-gauge gavage needle was inserted through the oral cavity into the pharynx and advanced without obvious resistance, and then the drug was then injected into the stomach. • 4. Sample collection: whole blood (0.1 mL) was collected from each test animal before drug administration and at 0.5 hours, 1 hour, 2 hours, 4 hours, 6 hours, 8 hours, 12 hours and 24 hours after drug administration, transferred into EDTA-Na2 anticoagulant tubes, mixed evenly by inverting the tubes 3-4 times, and then centrifuged at 10000 g and 4°C for 5 minutes to separate plasma. The obtained plasma samples were stored at -80°C for later analysis. The blood samples were collected via the tail vein.
Specific operation: the rat was secured in a restrainer to fully expose its tail, the tail was wiped with alcohol to make the surface skin absorb the alcohol, so as to induce obvious venous dilation. A suitable vein was selected from two sides, and the needle was inserted at approximately one-third of the distance from the tail tip. An insulin syringe was used as the injection syringe, the needle was inserted with the bevel facing upward, and the needle was immediately adjusted to a parallel position after piercing the skin. Slight sliding resistance of the needle inside the vessel and blood reflux in the injection syringe indicated successful venous access. Approximately 0.1-0.2 mL of whole blood was drawn. Gentle compression was applied for hemostasis after needle removal.
Preparation of standard curve sample: 25 µL of blank rat plasma was transferred into a centrifuge tube respectively, 25 µL of prepared serial standard solution (prepared in methanol) was added, and then 200 µL of internal standard solution (prepared in methanol) was added. The mixture was mixed by vortexing for 2 minutes, and centrifuged at 10000 g and 4°C for 10 minutes.
Treatment of the unknown plasma sample: 25 µL of drug-containing rat plasma was collected respectively, and then 25 µL of methanol and 200 µL of internal standard solution were added sequentially. The mixture was mixed by vortexing for 2 minutes, and centrifuged at 10000 g and 4°C for 10 minutes. The supernatant was collected for LC/MS/MS detection.
A quantitative detection method for the test compound was established by using a Shimadzu liquid chromatography system and a Triple Quad TM 6500+AB mass spectrometer. A concentration of a parent drug in plasma was determined. Plasma concentration-time curves were plotted, and major pharmacokinetic parameters were calculated via a non-compartmental model in winnonlin Phoenix software. […]

c-Kit kinase = c-Kit kinase (Homo sapiens, UniProt P10721); experiment: Enzyme activity assay (c-Kit kinase); format: biochemical
Description: Biological activity tests were performed on partial compounds synthesized in the above examples and comparative examples below. […]

[2] = Brain-penetrating pharmacokinetic test; format: in vivo, Sprague-Dawley (SD) rat; conditions: SD rats, p.o., 10 mg/kg, single administration; for Kp: Sprague-Dawley, rat, brain tissue / plasma, po, read-out: Total drug brain-to-plasma ratio (B/P)
Description: Administration vehicle: 5% DMSO+10% Solutol HS15+85% normal saline
Formulation preparation process: an appropriate amount of powder was weighed, an appropriate volume of DMSO was added, and the mixture was mixed by vortexing. Subsequently, an appropriate volume of Solutol solution was added and vortexed, then normal saline was added, and the mixture was subjected to vortexing and ultrasonic processing to form a homogeneous and clear formulation solution.
The experimental animals were fed in an animal room. The animal room was equipped with an air-conditioning system, with adequate ventilation, an indoor temperature was maintained at 20-26°C, and a relative humidity was maintained at 40%-70%. Artificial lighting was applied in the animal room, with a 12-hour light/dark cycle (except for working lights turned on during experimental operations and cleaning). The experimental animals had free access to food and water.
The purchased animals were fed normally for at least 3 days, rats with healthy physical conditions were included in the experiment, and each rat was marked with a tail number. Animals in an oral administration group were fasted overnight one day before drug administration, and fed 4 hours after drug administration, with free access to water.
• Administration route: intragastric administration (p.o.) • Administration concentration: 1 mg/mL • Administration dose: 10 mg/kg • Administration volume: 10 mL/kg • Administration frequency: single administration
Before drug administration, a state of the administration formulation was examined, the homogeneity of the formulation was ensured by vortexing, stirring or shaking, and a theoretical administration volume for each SD rat in every group was calculated according to the following formula. Theoretical; administration volume(mL) = (Dose (mg⋅kg^−1))/(Formulation; concentration(mg⋅mL^−1)) × Body; weight(kg) [formula]
The rats were sampled at 1 hour, 2 hours, 4 hours, 6 hours, 8 hours and 24 hours after drug administration.
Plasma: at each time point, 0.25 mL of whole blood was collected from the jugular vein and transferred into a test tube containing an anticoagulant EDTA-K2 (7 µL, 10% EDTA-K2 solution), placed on wet ice, and centrifuged within 1 hour (2,000 g, 2-8°C, 10 minutes), and then, the plasma was taken. The plasma was stored in a pre-chilled centrifuge tube, rapidly frozen in dry ice, and then stored in an ultra-low temperature refrigerator at -60°C or lower until LC-MS/MS analysis.
Cerebrospinal fluid: the rats were euthanized via a carbon dioxide process, and approximately 60 µL of cerebrospinal fluid was collected by puncture. 1 mL syringe was used, with the bevel of the needle facing upward, the needle tip was inserted into the subarachnoid space in a nearly horizontal position, then the needle was fixed, and the cerebrospinal fluid was slowly aspirated. The collected samples were frozen on dry ice within 30 minutes, and then transferred to an environment at -90°C to -60°C.
Brain tissue: cardiac perfusion was performed first, and then the brain tissue was isolated. Under deep terminal anesthesia, approximately 80 mL of normal saline was used for cardiac perfusion, and residual blood in the brain tissue was flushed out of cerebral circulation. The isolated brain tissue was gently rinsed once with ice-cold normal saline, excess water was removed, weighed, and then transferred to a frozen storage environment at -90°C to -60°C.
A quantitative detection method for the test compound was established by using a Shimadzu liquid chromatography system and a Triple Quad TM 6500+AB mass spectrometer. A concentration of a parent drug in a sample was analyzed. Quality control samples were used for variation control over analysis results, and the accuracy of the quality control samples should fall within the range of 80%-120%.
Pharmacokinetic parameters: Tmax, Cmax, AUC (0-t), AUC (0-∞), T1/2, MRT (0-∞), and the like were calculated by using winnonlin Phoenix 8.1.0.3530. […]

Chain of c-Kit kinase (P10721 26-976): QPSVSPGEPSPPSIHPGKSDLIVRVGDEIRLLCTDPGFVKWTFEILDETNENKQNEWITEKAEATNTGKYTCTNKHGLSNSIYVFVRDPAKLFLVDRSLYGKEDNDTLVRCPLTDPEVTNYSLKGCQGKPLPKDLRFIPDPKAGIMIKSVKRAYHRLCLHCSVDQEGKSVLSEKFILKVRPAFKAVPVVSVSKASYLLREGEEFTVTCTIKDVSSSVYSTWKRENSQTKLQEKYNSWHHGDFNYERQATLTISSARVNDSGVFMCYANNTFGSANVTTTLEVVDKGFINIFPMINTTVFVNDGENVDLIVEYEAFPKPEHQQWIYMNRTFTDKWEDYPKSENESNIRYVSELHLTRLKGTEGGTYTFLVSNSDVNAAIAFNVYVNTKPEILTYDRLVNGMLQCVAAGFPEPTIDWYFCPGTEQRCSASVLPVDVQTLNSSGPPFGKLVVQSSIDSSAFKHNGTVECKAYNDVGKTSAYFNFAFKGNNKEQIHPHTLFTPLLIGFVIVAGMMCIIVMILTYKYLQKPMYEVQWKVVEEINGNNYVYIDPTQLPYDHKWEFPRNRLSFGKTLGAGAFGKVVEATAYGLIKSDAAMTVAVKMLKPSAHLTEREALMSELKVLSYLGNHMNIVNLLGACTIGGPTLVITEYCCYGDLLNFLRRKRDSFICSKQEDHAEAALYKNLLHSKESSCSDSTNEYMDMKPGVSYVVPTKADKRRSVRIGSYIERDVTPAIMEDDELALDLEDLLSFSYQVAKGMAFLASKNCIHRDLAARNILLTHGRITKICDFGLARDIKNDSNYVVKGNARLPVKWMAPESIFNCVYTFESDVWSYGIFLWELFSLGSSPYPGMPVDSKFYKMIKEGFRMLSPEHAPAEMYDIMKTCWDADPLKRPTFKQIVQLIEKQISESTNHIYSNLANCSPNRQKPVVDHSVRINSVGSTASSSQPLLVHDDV

Structure (SMILES) | AUC [1] [ng·h/mL] | Cmax [1] [ng/mL] | IC50 (c-Kit kinase) [nM] | Total drug concentration in brain tissue [2] [ng·h/mL] | Total drug concentration in plasma [2] [ng·h/mL] | Kp [2]
[2H]C([2H])(c1ccc(C(=O)Nc2ccc(C)c(Nc3nc(-c4cccnc4)cs3)c2)cc1)N1CCN(C)CC1 [Compound T-02] | 2370 | 397 | – | – | – | –
[2H]C([2H])([2H])N1CCN(Cc2ccc(C(=O)Nc3ccc(C(F)(F)F)c(Nc4nc(-c5cccnc5)cs4)c3)c(F)c2)CC1 [Compound T-20] | – | – | 2.1 | 3092.40 | 4123.20 | 0.75
[2H]C([2H])([2H])N1CCN(Cc2ccc(C(=O)Nc3ccc(C(F)(F)F)c(Nc4nc(-c5ccc(F)nc5)cs4)c3)c(F)c2)CC1 [Compound T-19] | – | – | 2.11 | – | – | –
[2H]C([2H])([2H])N1CCN(C([2H])([2H])c2ccc(C(=O)Nc3ccc(C)c(Nc4nc(-c5cccnc5)cs4)c3)c(F)c2)CC1 [Compound T-08] | – | – | 3.89 | 1798.12 | 3269.32 | 0.55
Cc1ccc(NC(=O)c2ccc(CN3CCN(C)CC3)cc2)cc1Nc1nc(-c2cccnc2)cs1 [Masitinib, reference compound] | 1770 | 321 | – | 356.98 | 1771.48 | 0.2
[2H]C([2H])(c1ccc(C(=O)Nc2ccc(C(F)(F)F)c(Nc3nc(-c4ccc(F)nc4)cs3)c2)cc1)N1CCN(C)CC1 [Compound T-11] | – | – | 3.55 | – | – | –
[2H]C([2H])([2H])N1CCN(Cc2ccc(C(=O)Nc3ccc(C)c(Nc4nc(-c5cccnc5)cs4)c3)c(F)c2)CC1 [Compound T-01] | 2690 | 419 | 1.67 | 1370.43 | 2687.12 | 0.51
[2H]C([2H])([2H])N1CCN(C([2H])([2H])c2ccc(C(=O)Nc3ccc(C(F)(F)F)c(Nc4nc(-c5ccc(F)nc5)cs4)c3)c(F)c2)CC1 [Compound T-17] | 4290 | 533 | 1.35 | – | – | –
[2H]C([2H])(c1ccc(C(=O)Nc2ccc(C(F)(F)F)c(Nc3nc(-c4cccnc4)cs3)c2)cc1)N1CCN(C)CC1 [Compound T-12] | – | – | 2.13 | – | – | –
[2H]C([2H])([2H])N1CCN(C([2H])([2H])c2ccc(C(=O)Nc3ccc(C)c(Nc4nc(-c5cccnc5)cs4)c3)cc2)CC1 [Compound T-04] | 3260 | 486 | – | – | – | –
[2H]C([2H])(c1ccc(C(=O)Nc2ccc(C(F)(F)F)c(Nc3nc(-c4cccnc4)cs3)c2)c(F)c1)N1CCN(C)CC1 [Compound T-21] | – | – | 1.36 | 2763.22 | 3891.87 | 0.71
[2H]C([2H])(c1ccc(C(=O)Nc2ccc(C(F)(F)F)c(Nc3nc(-c4ccc(F)nc4)cs3)c2)c(F)c1)N1CCN(C)CC1 [Compound T-16] | 4010 | 516 | 2.12 | 3129.79 | 4012.56 | 0.78
[2H]C([2H])([2H])N1CCN(C([2H])([2H])c2ccc(C(=O)Nc3ccc(C(F)(F)F)c(Nc4nc(-c5cccnc5)cs4)c3)c(F)c2)CC1 [Compound T-18] | 4000 | 501 | 3.12 | – | – | –
[2H]C([2H])([2H])N1CCN(C([2H])([2H])c2ccc(C(=O)Nc3ccc(C(F)(F)F)c(Nc4nc(-c5cccnc5)cs4)c3)cc2)CC1 [Compound T-15] | – | – | 3.56 | – | – | –
